Results on 2 molecules are retold here after patent US20020128228A1, “Compositions and methods for the treatment of cancer” (priority 2000, published 2002).

Like-named read-outs stand apart in the source and are kept apart here.

Series [1] has as its system malignant melanoma.
For series [2] the following is noted: after intravenous administration; cited from earlier work.
For series [3] the following is noted: single dose schedule, cited from earlier work.

`O=C1CCC(N2C(=O)c3ccccc3C2=O)C(=O)N1` (racemic) [thalidomide, 2-(2,6-dioxo-3-piperidinyl)-1H-isoindole-1,3(2H)-dione]: the recurrence result in series [1] (single treatment with thalidomide continued for one year) is recorded as “only recurrence in the leg”. Also, the metastases and adenopathy entry in series [1] (thalidomide alone, maximum 200 mg/d, after dacarbazine was discontinued, additional 3 months) is “resolution of the metastases continued and virtually no adenopathy was detected”.

Regarding `Cn1nnc2c(C(N)=O)ncn2c1=O` [temozolomide, 8-carbamoyl-3-methyl-imidazo-[5.1.d]-1,2,3,5-tetrazin-4(3H)-one], the “half life distribution (plasma, biexponential decline)” value in series [2] is listed as 1.8 h. Besides, the results for the nausea and vomiting entry in series [3] (dosages up to 700 mg/m^2) and in series [3] (doses higher than 700 mg/m^2) were “mild” and “Grade 4 toxicity”, respectively.
